Measured values from patent US20040142978A1, “Aminocyanopyridine inhibitors of mitogen activated protein kinase-activated protein kinase-2” (Pharmacia Corporation, priority 2002, published 2004).
Structures can show the parent of a compound that is named as a salt. Where two headings read alike, the source gives them in different places. One block for each compound: values may come before it.

Tests used:
[1] = tested on: TNFα release from U937 cells; assay: U937 Cell TNFα Release Assay (LPS-stimulated, TNFα ELISA); type: cell-based; settings: Homo sapiens, read-out: TNFα release assay IC50
Protocol: The human monocyte-like cell line, U937 (ATCC #CRL-1593.2), is cultured in RPMI1640 media with 10% heat-inactivated fetal calf serum (GIBCO), glutamine and pen/strep at 37° C. and 5% CO2. Differentiation of U937 to monocytic/macrophage-like cells is induced by the addition of phorbol12-myristate 13-acetate (Sigma) at final concentration of 20 ng/ml to a culture of U937 cells at ˜0.5 million cells/ml and incubated for 24 hrs. The cells are centrifuged, washed with PBS and resuspended in fresh media without PMA and incubated for 24 hrs. Cells adherent to the culture flask are harvested by scraping, centrifugation, and resuspended in fresh media to 2 million cells/ml, and 0.2 ml is aliquoted to each of 96 wells in flat-bottom plate. Cells are then incubated for an additional 24 hrs to allow for recovery. The media is removed from the cells, and 0.1 ml of fresh media is added per well. 0.05 ml of serially diluted compound or control vehicle (Media with DMSO) is added to the cells. […] After 1 hr incubation, 0.05 ml of 400 ng/ml LPS (E Coli serotype 0111:B4, Sigma) in media is added for final concentration of 100 ng/ml. Cells are incubated at 37° C. for 4 hrs. After 4 hrs incubation, supernatants are harvest and assayed by ELISA for the presence of TNFα.
ELISA plates (NUNC-Immuno™ Plate Maxisorb™ Surface) were coated with purified mouse monoclonal IgG1 anti-human TNFα antibody (R&D Systems #MAB610; 1.25 ug/ml in sodium bicarbonate pH 8.0, 0.1 ml/well) and incubated at 4° C. Coating solution was aspirated the following day and wells were blocked with 1 mg/ml gelatin in PBS (plus 1× thimerasol) for 2 days at 4° C. Prior to using, wells were washed 3× with wash buffer (PBS with 0.05% Tween). Cultured media samples were diluted in EIA buffer (5 mg/ml bovine γ-globulin, 1 mg/ml gelatin, 1 ml/l Tween-20, 1 mg/ml thimerasol in PBS), added to wells (0.1 ml/well) in triplicate and allowed to incubate for 1.5 hr at 37° C. in a humidified chamber. Plates were again washed and 0.1 ml/well of a mixture of rabbit anti-human TNFα polyclonal antibodies in EIA buffer (1:400 dilution of Sigma #T8300, and 1:400 dilution of Calbiochem #654250) was added for 1 hr at 37° C. Plates were washed as before and peroxidase-conjugated goat anti-rabbit IgG (H+L) antibody (Jackson lmmunoResearch #111-035-144, 1 ug/ml in EIA buffer, 0.1 ml/well) was added for 45 min. After final washing, plates were developed with peroxidase-ABTS solution (Kirkegaard/Perry #50-66-01, 0.1 ml/well). Enzymatic conversion of ABTS to colored product was measured after 5-30 minutes using a SpectroMax 340 spectrophotometer (Molecular Devices) at 405 nm. TNF levels were quantitated from a recombinant human TNFα (R&D Systems #210-TA-010) standard curve using a quadratic parameter fit generated by SoftMaxPRO software. ELISA sensitivity was approximately 30 pg TNF/ml. IC50 values for compounds were generated using BioAssay Solver.

[2] = tested on: TNFα production; assay: Lipopolysaccharide (LPS)-Induced TNFα Production (Rat LPS assay, serum TNFα ELISA); type: in vivo, Lewis rats; settings: 20 mpk (IG)
Protocol: Adult male 225-250 gram Lewis rats (Harlan Sprague-Dawley) were used. Rats were fasted 18 hr prior to oral dosing, and allowed free access to water throughout the experiment. Each treatment group consisted of 5 animals.
Compounds were prepared as a suspension in a vehicle consisting of 0.5% methylcellulose, 0.025% Tween-20 in PBS. Compounds or vehicle were orally administered in a volume of 1 ml using an 18 gauge gavage needle. LPS (E. coli serotype 0111:B4, Lot #39H4103, Cat. # L-2630, Sigma) was administered 1-4 hr later by injection into the penile vein at a dose of 1 mg/kg in 0.5 ml sterile saline. Blood was collected in serum separator tubes via cardiac puncture 1.5 hr after LPS injection, a time point corresponding to maximal TNFα production. […]
ELISA plates (NUNC-Immuno™ Plate Maxisorb™ Surface) were coated with 0.1 ml per well of an Protein G purified fraction of a 2.5 ug/ml of hamster anti-mouse/rat TNFα monoclonal antibody TN19.12 (2.5 ug/ml in PBS, 0.1 ml/well). […] Enzymatic conversion of ABTS to colored product was measured after ˜30 minutes using a SpectroMax 340 spectrophotometer (Molecular Devices Corp.) at 405 nm. TNF levels in serum were quantitated from a recombinant rat TNFα (BioSource International, Cat. #PRC3014.) standard curve using a quadratic parameter fit generated by SoftMaxPRO software. […]

[3] = molecular target: Recombinant MAPKAPK2 (MK-2) (Homo sapiens, UniProt P49137); assay: Determination of MK-2 IC50 (anion exchange resin capture assay, phosphorylation of HSP-peptide); type: biochemical
Protocol: The phosphorylation of HSP-peptide ([…]) by MAPKAPK2 was measured using an anion exchange resin capture assay method. […] The reaction was terminated and [γ^33P]ATP was removed from solution by the addition of 150 μl of AG 1×8 ion exchange resin in 900 mM sodium formate pH 3.0. A 50 μl aliquot of head volume was removed from the quenched reaction mixture and added to a 96-well plate, 150 μl of Microscint-40 (Packard) was added and the amount of phosphorylated-peptide was determined. Allow the Microscint to sit in the plates for 60 minutes prior to counting.
Compounds are evaluated as potential inhibitors of the MK2 kinase by measuring their effects on MK2 phosphorylation of the peptide substrate. Compounds may be screened initially at two concentrations prior to determination of IC50 values. Screening results are expressed as percent inhibition at the concentrations of compound tested. For IC50 value determinations, compounds are tested at six concentrations in ten-fold serial dilutions with each concentration tested in triplicate. Results are expressed as IC50 values in micromolar. The assay is performed at a final concentration of 2% DMSO.

[4] = U-937, U937 cells, LPS 100 ng/ml, 4 hrs

Chain of Recombinant MAPKAPK2 (MK-2) (P49137 whole entry, species assumed): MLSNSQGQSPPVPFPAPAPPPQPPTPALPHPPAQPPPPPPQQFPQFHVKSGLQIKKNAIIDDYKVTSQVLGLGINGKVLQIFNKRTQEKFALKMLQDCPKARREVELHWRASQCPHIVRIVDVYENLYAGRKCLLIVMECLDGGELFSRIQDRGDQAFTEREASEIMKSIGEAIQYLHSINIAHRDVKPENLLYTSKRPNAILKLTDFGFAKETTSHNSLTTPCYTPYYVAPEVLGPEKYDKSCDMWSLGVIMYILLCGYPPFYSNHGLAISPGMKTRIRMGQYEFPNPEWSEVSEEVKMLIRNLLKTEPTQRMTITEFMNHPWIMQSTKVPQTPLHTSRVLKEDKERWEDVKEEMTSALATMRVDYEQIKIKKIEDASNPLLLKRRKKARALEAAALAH

SMILES: N#Cc1c(-c2cnc[nH]2)cc(-c2cccc(O)c2)nc1N [Example 4, 2-amino-6-(3-hydroxyphenyl)-4-(1H-imidazol-5-yl)nicotinonitrile trifluoroacetate]
IC50 ([1]; U-937, 4 h): 7 µM
Rat LPS assay: inhibition of TNFα production [2]: 41%

IC50 [3]: 64.6 µM
SMILES: N#Cc1c(-c2ccc(B(O)O)cc2)cc(-c2ccco2)nc1N [Example 88, bis(trifluoroacetate)]

IC50 [1, 4]: 17.7 µM
SMILES: N#Cc1c(N)nc2c(c1-c1ccccc1)CCc1n[nH]cc1-2 [Example 100, 2-amino-4-phenyl-6,8-dihydro-5H-pyrazolo[3,4-h]quinoline-3-carbonitrile bis(trifluoroacetate)]

SMILES: N#Cc1c(N)nc2c(c1-c1cccc(F)c1F)CCc1[nH]ncc1-2.O=C(O)C(F)(F)F.O=C(O)C(F)(F)F [Example 102, 2-amino-4-(2,3-difluorophenyl)-6,7-dihydro-5H-pyrazolo[3,4-h]quinoline-3-carbonitrile bis(trifluoroacetate)]
IC50 ([1]; U-937, 4 h): 4 µM
Rat LPS assay: inhibition of TNFα production [2]: 83%

SMILES: N#Cc1c(N)nc2c(c1-c1ccco1)CCc1cn[nH]c1-2 [Example 105, 8-amino-6-(2-furyl)-4,5-dihydro-1H-pyrazolo[4,3-h]quinoline-7-carbonitrile]
IC50 [1, 4]: 0.9 µM

IC50 [1, 4]: 4 µM
SMILES: N#Cc1c(-c2ccco2)cc(-c2cc[nH]n2)nc1N [Example 106, 2-amino-4-(2-furyl)-6-(1H-pyrazol-3-yl)nicotinonitrile trifluoroacetate]

IC50 [3]: 127 µM
SMILES: CCOCC1Cc2c(nc(N)c(C#N)c2N)O1 (stereo not drawn) [Example 125, trifluoroacetate]
